Our source for the Ki and Affinity constant values is ChEMBL document CHEMBL1122012, “Adenosine receptors: targets for future drugs” (J Med Chem, 1982).

Activity calls are given as the source filed them. The calls are words filed in the database; no cut-off is given here.

The target in test [1] is T1, Adenosine receptor A2a (Cavia porcellus, UniProt P46616). Put plainly: biochemical.
Description: (§1) Antagonist binding of N6-cyclohexyl-[3H]-adenosine to guinea pig brain
For test [2], the target named is T2, Adenosine A2 receptor (Homo sapiens) (UniProt P29275+P29274). The conditions noted are these: brain.
Test [3] addresses T3, Adenosine receptor A1 (Homo sapiens) (UniProt P30542).
T3 sequence (whole entry): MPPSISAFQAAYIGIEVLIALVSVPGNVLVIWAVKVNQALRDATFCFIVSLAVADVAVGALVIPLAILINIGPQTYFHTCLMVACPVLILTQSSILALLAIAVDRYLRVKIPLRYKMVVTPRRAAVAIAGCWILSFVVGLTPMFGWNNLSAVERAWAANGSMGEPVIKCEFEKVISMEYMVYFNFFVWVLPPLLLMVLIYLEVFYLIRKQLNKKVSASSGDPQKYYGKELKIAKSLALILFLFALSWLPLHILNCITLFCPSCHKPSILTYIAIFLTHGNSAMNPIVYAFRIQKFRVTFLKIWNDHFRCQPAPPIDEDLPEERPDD
Conditions: brain.

Another test has as its target T4, Adenosine receptor A1 (Bos taurus, UniProt P28190).
T4 sequence (P28190 whole entry): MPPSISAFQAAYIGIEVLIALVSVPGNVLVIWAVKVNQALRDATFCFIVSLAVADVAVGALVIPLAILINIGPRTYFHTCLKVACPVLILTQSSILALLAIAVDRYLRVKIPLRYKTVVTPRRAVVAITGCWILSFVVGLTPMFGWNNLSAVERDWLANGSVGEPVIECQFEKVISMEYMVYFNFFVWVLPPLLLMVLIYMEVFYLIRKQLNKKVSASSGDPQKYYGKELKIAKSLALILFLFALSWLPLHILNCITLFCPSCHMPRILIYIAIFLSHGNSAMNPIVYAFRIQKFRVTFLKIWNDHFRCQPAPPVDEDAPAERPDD

The target in test [4] is T5, Adenosine receptor (Homo sapiens) (UniProt P30542+P29275+P0DMS8+P29274).
T5 sequence (P0DMS8 whole entry, looked up, one chain of several): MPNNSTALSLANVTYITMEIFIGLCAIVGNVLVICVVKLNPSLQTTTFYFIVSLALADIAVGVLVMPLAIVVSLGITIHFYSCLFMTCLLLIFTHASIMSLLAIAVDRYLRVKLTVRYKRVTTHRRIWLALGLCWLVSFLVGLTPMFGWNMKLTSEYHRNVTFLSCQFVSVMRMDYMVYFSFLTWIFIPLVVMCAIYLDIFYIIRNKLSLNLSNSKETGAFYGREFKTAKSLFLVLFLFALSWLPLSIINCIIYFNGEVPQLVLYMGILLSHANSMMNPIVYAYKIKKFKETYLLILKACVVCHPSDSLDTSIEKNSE
T5 sequence (P29274 whole entry, looked up, one chain of several): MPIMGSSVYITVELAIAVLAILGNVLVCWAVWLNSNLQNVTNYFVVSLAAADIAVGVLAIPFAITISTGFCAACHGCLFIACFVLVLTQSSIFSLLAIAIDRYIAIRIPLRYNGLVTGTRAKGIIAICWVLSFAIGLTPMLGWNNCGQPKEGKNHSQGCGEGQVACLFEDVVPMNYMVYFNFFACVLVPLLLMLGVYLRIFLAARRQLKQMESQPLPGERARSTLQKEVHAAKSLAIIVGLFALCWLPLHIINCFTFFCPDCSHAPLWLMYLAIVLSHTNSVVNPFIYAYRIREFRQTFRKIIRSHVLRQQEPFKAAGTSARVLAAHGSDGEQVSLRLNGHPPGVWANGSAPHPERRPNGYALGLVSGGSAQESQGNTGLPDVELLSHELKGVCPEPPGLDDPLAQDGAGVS
T5 sequence (P29275 whole entry, looked up, one chain of several): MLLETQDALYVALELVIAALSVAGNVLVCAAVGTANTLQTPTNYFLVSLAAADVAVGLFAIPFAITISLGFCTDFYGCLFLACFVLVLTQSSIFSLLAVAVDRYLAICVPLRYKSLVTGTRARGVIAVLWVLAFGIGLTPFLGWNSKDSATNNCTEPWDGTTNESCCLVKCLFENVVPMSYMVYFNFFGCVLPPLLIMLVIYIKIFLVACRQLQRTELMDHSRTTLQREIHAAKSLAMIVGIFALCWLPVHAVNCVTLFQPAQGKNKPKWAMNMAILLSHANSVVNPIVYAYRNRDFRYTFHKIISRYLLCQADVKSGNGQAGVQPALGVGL
Test [5] has as its target T5, Adenosine receptor (Homo sapiens). This is another data set of the same source.
Test [6] concerns the target T2, Adenosine A2 receptor (Homo sapiens). Conditions: brain. The source holds these as a separate data set.
Test [7] concerns the target T3, Adenosine receptor A1 (Homo sapiens). Put plainly: Affinity constant for inhibition of A1 receptor control of adenylate cyclase in adipocytes, heart and brain cells; Inactive. In kind it is functional, cell-based.
For test [8], the target named is T2, Adenosine A2 receptor (Homo sapiens). Put plainly: Affinity constant for A2 receptor control of adenylate cyclase in adipocytes, heart and brain cells; Inactive. Format: functional, cell-based.
The target of test [9] is T1, Adenosine receptor A2a. Put plainly: biochemical. The source holds these as a separate data set.
Description: as §1
Test [10] concerns the target T6, Adenosine receptor (Rattus norvegicus, UniProt P29276+P25099+P30543+P28647). Put plainly: Antagonist binding of rN6-cyclohexyl-[3H]adenosine to rat brain. Format: functional.
Test [11] deals with T6, Adenosine receptor.
Description: Antagonist binding of L-N6-phenyl-isopropyl)-[3H]adenosine to rat fat
Test [12] addresses T6, Adenosine receptor. Format: functional.

T1 sequence (P46616 whole entry): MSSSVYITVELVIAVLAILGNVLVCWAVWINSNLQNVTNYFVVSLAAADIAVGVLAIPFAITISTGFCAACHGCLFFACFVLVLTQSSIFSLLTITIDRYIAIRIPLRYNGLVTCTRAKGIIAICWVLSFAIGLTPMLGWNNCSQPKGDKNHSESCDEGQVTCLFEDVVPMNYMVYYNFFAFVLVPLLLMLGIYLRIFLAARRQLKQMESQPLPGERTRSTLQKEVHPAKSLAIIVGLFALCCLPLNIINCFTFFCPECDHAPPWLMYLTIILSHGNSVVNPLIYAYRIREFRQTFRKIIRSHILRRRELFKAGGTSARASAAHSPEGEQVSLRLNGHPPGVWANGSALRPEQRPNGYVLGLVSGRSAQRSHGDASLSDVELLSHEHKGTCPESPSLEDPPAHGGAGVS

On to `Nc1ncnc2c1ncn2[C@@H]1O[C@H](C(=O)NC2CC2)[C@@H](O)[C@H]1O`, for which, on Adenosine receptor A2a [1], the inhibition constant Ki was determined as 8 nM. That is a single-digit nanomolar value.
For `Nc1nc(Cl)nc2c1ncn2[C@@H]1O[C@H](CO)[C@@H](O)[C@H]1O`, the figures for the Affinity constant in test [2] and in [3] were 5 µM and 0.01 µM, respectively. The Ki is 8 nM at Adenosine receptor A2a [1] and 25 nM on Adenosine receptor A1. In addition, the Affinity constant result in [4] is “inactive”.
Consider `OC[C@H]1O[C@@H](n2cnc3c(NC4CCCCC4)ncnc32)[C@H](O)[C@@H]1O`, for which the Affinity constant was 0.003 µM in test [3] and 30 µM in [6]. Moreover, in [5], the Affinity constant result was “inactive”. In addition, the affinity on Adenosine receptor A1 corresponds to a Ki of 2.5 nM.
In turn, `CCNC(=O)[C@H]1O[C@@H](n2cnc3c(N)ncnc32)[C@H](O)[C@@H]1O` returned an Affinity constant in test [3] of 0.1 µM.
On to `CNc1ncnc2c1ncn2[C@@H]1O[C@H](CO)[C@@H](O)[C@H]1O`, for which the figures for the Affinity constant in test [3] and in test [6] were 0.1 µM and 80 µM, respectively.
Consider `CSC[C@H]1O[C@@H](n2cnc3c(N)ncnc32)[C@H](O)[C@@H]1O`, for which the Affinity constant in test [6] was 10 µM.
Consider `C[C@@H]1O[C@H](n2cnc3c(N)ncnc32)C[C@H]1O`, for which the Affinity constant entry in [7] and in test [8] was “inactive” each time. In addition, the Affinity constant in test [5] stood at 2 µM.
As to `OC[C@H]1O[C@@H](n2cnc3c(NCc4ccccc4)ncnc32)[C@H](O)[C@@H]1O`, the Affinity constant amounted to 0.2 µM in test [3] and 80 µM in [6]. Besides, the Affinity constant result in [5] is “inactive”.
Take `OC[C@H]1O[C@@H](n2cnc3c(Nc4ccccc4)ncnc32)[C@H](O)[C@@H]1O`: the Affinity constant in test [3] stood at 0.003 µM; in test [6], 50 µM. Moreover, the Affinity constant result in test [5] was “inactive”.
As for `Cn1c(=O)c2[nH]c(-c3ccccc3)nc2n(C)c1=O` [8-PHENYL THEOPHYLLINE], on Adenosine receptor A2a [1], affinity was put at a Ki of 400 nM.
Regarding `C[C@H](Cc1ccccc1)Nc1ncnc2c1ncn2[C@@H]1O[C@H](CO)[C@@H](O)[C@H]1O` [(R)-PIA], the Affinity constant in test [3] was found to be 0.003 µM; in test [6] it was 30 µM. In test [5], the Affinity constant entry is “inactive”. The inhibition constant (Ki) on Adenosine receptor A1 amounted to 0.25 nM; on Adenosine receptor A2a [9], 3.3 nM.
Turning to `C[C@@H](Cc1ccccc1)Nc1ncnc2c1ncn2[C@@H]1O[C@H](CO)[C@@H](O)[C@H]1O` [(S)-PIA], the figures for the Affinity constant in test [3] and in [6] were 0.2 µM and 100 µM, respectively. The values for the inhibition constant (Ki) on Adenosine receptor A2a [1] and on Adenosine receptor A1 were 130 nM and 8 nM, respectively. Moreover, the Affinity constant result in test [5] was “inactive”.
Take `Cn1c(=O)c2c(ncn2C)n(C)c1=O` [CAFFEINE]: the Affinity constant in test [3] and in test [6] was 30 µM throughout. Besides, in [5], the Affinity constant entry is “inactive”. The same compound displayed a Ki at Adenosine receptor A1 of 130000 nM.
For the compound `CC(C)Cn1c(=O)n(C)c(=O)c2[nH]cnc21` [ISOBUTYLMETHYLXANTHINE], the Ki amounted to 8000 nM at Adenosine receptor A2a [1] and 7000 nM at Adenosine receptor A1.
In the case of `CC(C)Cn1c(=O)n(C)c(=O)c2nc[nH]c21` [ISOBUTYLMETHYLXANTHINE], the Ki at Adenosine receptor [10] came to 3 µM; at Adenosine receptor [11], 20 µM; at Adenosine receptor [12], 0.8 µM. In addition, the Affinity constant in test [3] turned out to be 2 µM; in [6] it was 5 µM. The Affinity constant result in [5] is “inactive”.
